Data taken from US9914730B2, “Azaquinazoline inhibitors of Atypical protein Kinase C” (Ignyta, Inc., priority 2012, dated 2018).

The molecules below were run against T1, full-length human PKCι (Homo sapiens, UniProt P41743) (assay: PKCι IC50 IMAP assay, full-length PKCι at 150 μM ATP). Conditions: read-out: IC50 in IMAP assay against full length PKCi at 150 μM ATP.
T1 construct: Recombinant, full-length human PKCι expressed in Sf21 insect cells is also commercially available; purchased; host or cells: Sf21 insect cells
T1 sequence (P41743 1-596): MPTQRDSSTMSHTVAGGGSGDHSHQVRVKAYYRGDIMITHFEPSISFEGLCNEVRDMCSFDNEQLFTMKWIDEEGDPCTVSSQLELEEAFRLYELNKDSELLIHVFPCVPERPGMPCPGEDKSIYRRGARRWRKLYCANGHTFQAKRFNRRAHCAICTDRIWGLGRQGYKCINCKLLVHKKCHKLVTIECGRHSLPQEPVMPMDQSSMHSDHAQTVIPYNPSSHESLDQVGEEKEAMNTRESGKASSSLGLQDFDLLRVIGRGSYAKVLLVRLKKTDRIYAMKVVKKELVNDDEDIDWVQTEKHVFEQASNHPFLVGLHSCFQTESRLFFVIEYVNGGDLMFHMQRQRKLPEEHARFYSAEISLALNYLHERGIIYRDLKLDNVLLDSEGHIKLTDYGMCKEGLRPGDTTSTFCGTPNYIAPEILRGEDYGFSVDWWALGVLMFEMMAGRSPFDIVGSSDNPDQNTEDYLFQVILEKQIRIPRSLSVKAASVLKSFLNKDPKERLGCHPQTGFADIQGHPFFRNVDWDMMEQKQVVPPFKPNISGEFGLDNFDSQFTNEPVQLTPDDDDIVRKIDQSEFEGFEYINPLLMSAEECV
Format: biochemical
Procedure, shortened: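 Compounds in 4% final DMSO are mixed with Sf21-derived full-length human PKCι (typically 15 pM) and 100 nM FAM-labelled pseudosubstrate peptide, then started with 150 μM ATP. Reaction runs 60 min at room temperature, is quenched with IMAP development reagent for 2 h, and fluorescence polarisation is measured to derive IC50.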

IC50	Structure (SMILES)
100 to 1000 nM	N#Cc1cccc(Nc2cc(-c3nc(N4CC[C@H](O)[C@H](O)C4)c4c(C5CC5)cncc4n3)ccn2)n1 (relative stereo) [Example 745, 6-{4-[5-Cyclopropyl-4-((cis)-3,4-dihydroxy-piperidin-1-yl)-pyrido[3,4-d]pyrimidin-2-yl]-pyridin-2-ylamino}-pyridine-2-carbonitrile]
1000 to 10000 nM	c1ccc(Nc2cc(-c3nc(N4C[C@@H]5C[C@H]4CN5)c4ccncc4n3)ccn2)cc1 [Example 306, {4-[(1S,4S)-4-(2,5-Diaza-bicyclo[2.2.1]hept-2-yl)-pyrido[3,4-d]pyrimidin-2-yl]-pyridin-2-yl}-phenyl-amine]
1000 to 10000 nM	N[C@H](CNc1nc(-c2ccncc2)nc2c(Nc3cccc(Cl)c3)nccc12)Cc1ccccc1 [Example 125, 4-N-[(2S)-2-amino-3-phenylpropyl]-8-N-(3-chlorophenyl)-2-(pyridin-4-yl)pyrido[3,4-d]pyrimidine-4,8-diamine]
100 to 1000 nM	Clc1nccc2c(N3CCNCC3)nc(-c3ccncc3)nc12 [Example 32, 1-[8-chloro-2-(pyridin-4-yl)-pyrido[3,4-d]-pyrimidin-4-yl]-piperazine]
< 100 nM	COc1cccc(CC(=O)Nc2cc(-c3nc(N4CCNCC4)c4c(OC)cncc4n3)ccn2)c1 [Example 372, 2-(3-Methoxy-phenyl)-N-[4-(5-methoxy-4-piperazin-1-yl-pyrido[3,4-d]pyrimidin-2-yl)-pyridin-2-yl]-acetamide]
< 100 nM	CC1(C)CN(c2nc(-c3ccnc(Nc4ccc(F)cc4)c3)nc3cncc(C4CC4)c23)CCN1 [Example 719]
< 100 nM	c1ccc2sc(Nc3cc(-c4nc(N5CCNCC5)c5c(C6CC6)cncc5n4)ccn3)nc2c1 [Example 2045, Benzothiazol-2-yl-[4-(5-cyclopropyl-4-piperazin-1-yl-pyrido[3,4-d]pyrimidin-2-yl)-pyridin-2-yl]-amine]
100 to 1000 nM	N#Cc1ccc(Nc2cc(-c3nc(N4CCNCC4)c4c(C5CC5)cncc4n3)ccn2)cn1 [Example 506, 5-[4-(5-Cyclopropyl-4-piperazin-1-yl-pyrido[3,4-d]pyrimidin-2-yl)-pyridin-2-ylamino]-pyridine-2-carbonitrile]
1000 to 10000 nM	COc1cncc2nc(-c3ccnc(Nc4ccccc4)c3)nc(N3CC[C@@H](O)[C@@H](O)CC3)c12 [Example 467, (meso)-cis-1-[5-Methoxy-2-(2-phenylamino-pyridin-4-yl)-pyrido[3,4-d]pyrimidin-4-yl]-azepane-4,5-diol]
10000 to 40000 nM	O[C@@H]1CCN(c2nc(-c3ccncc3)nc3cnccc23)C1 [Example 36, (3R)-1-[2-(pyridin-4-yl)pyrido[3,4-d]-pyrimidin-4-yl]-pyrrolidin-3-ol]
100 to 1000 nM	N[C@@H](CNc1nc(-c2ccncc2)nc2c(-c3ccccn3)nccc12)Cc1ccccc1 [Example 122, (R)-3-Phenyl-N^1-(2-pyridin-4-yl-8-pyridin-2-yl-pyrido[3,4-d]pyrimidin-4-yl)-propane-1,2-diamine]
100 to 1000 nM	NC(=O)c1ccc(Nc2cc(-c3nc(N[C@@H]4CCNC4)c4ccncc4n3)ccn2)cc1 [Example 304, 4-{4-[4-((R)-Pyrrolidin-3-ylamino)-pyrido[3,4-d]pyrimidin-2-yl]-pyridin-2-ylamino}-benzamide]

The next lines start with the molecule.

Structure (SMILES)	IC50
FC(F)(F)c1ccc(-n2cc(Nc3cc(-c4nc(N5CCNCC5)c5c(C6CC6)cncc5n4)ccn3)c(Cl)n2)nc1 [Example 2154, [3-Chloro-1-(5-trifluoromethyl-pyridin-2-yl)-1H-pyrazol-4-yl]-[4-(5-cyclopropyl-4-piperazin-1-yl-pyrido[3,4-d]pyrimidin-2-yl)-pyridin-2-yl]-amine]	< 100 nM
CN(c1nc(-c2ccnc(Nc3nc(F)c(F)cc3F)c2)nc2cncc(C3CC3)c12)C1CCNCC1 [Example 2014, {5-Cyclopropyl-2-[2-(3,5,6-trifluoro-pyridin-2-ylamino)-pyridin-4-yl]-pyrido[3,4-d]pyrimidin-4-yl}-methyl-piperidin-4-yl-amine]	< 100 nM
COc1cncc2nc(-c3ccnc(NC(=O)C(C)(C)C)c3)nc(N3CCNCC3)c12 [Example 217, N-[4-(5-Methoxy-4-piperazin-1-yl-pyrido[3,4-d]pyrimidin-2-yl)-pyridin-2-yl]-2,2-dimethyl-propionamide]	100 to 1000 nM
C[C@@H]1CN(c2nc(-c3ccnc(Nc4nc(F)cc(F)c4F)c3)nc3cncc(C4CC4)c23)C[C@H](C)N1 [Example 2037, {4-[5-Cyclopropyl-4-((cis)-3,5-dimethyl-piperazin-1-yl)-pyrido[3,4-d]pyrimidin-2-yl]-pyridin-2-yl}-(3,4,6-trifluoro-pyridin-2-yl)-amine]	< 100 nM
COc1cncc2nc(N3CCOCC3)nc(N3CCN[C@@H](COc4ccc(F)cc4)C3)c12 [Example 1010, 4-[(R)-3-(4-Fluoro-phenoxymethyl)-piperazin-1-yl]-5-methoxy-2-morpholin-4-yl-pyrido[3,4-d]pyrimidine]	100 to 1000 nM
CN(C)CCNC(=O)C1CCN(c2nc(-c3ccnc(Nc4c(F)cccc4F)c3)nc3cncc(C4CC4)c23)CC1 [Example 736, 1-{5-Cyclopropyl-2-[2-(2,6-difluoro-phenylamino)-pyridin-4-yl]-pyrido[3,4-d]pyrimidin-4-yl}-piperidine-4-carboxylic acid (2-dimethylamino-ethyl)-amide]	< 100 nM
Brc1cncc2nc(N3CCOCC3)nc(N3CCNCC3)c12 [Example 1015, 5-Bromo-2-morpholin-4-yl-4-piperazin-1-yl-pyrido[3,4-d]pyrimidine]	100 to 1000 nM
Fc1cc(F)c(F)c(Nc2cc(-c3nc(N4CCNCC4)c4c(C5CCC5)cncc4n3)ccn2)n1 [Example 786, [4-(5-Cyclobutyl-4-piperazin-1-yl-pyrido[3,4-d]pyrimidin-2-yl)-pyridin-2-yl]-(3,4,6-trifluoro-pyridin-2-yl)-amine]	< 100 nM
N#CC[C@H]1CN(c2nc(N3CCOCC3)nc3cncc(C4CC4)c23)CCN1 [Example 1018, [(S)-4-(5-Cyclopropyl-2-morpholin-4-yl-pyrido[3,4-d]pyrimidin-4-yl)-piperazin-2-yl]-acetonitrile]	< 100 nM
Fc1ccc(C2(c3cc4c(-c5nc(N6CCNCC6)c6c(C7CC7)cncc6n5)ccnc4[nH]3)CC2)cc1 [Example 2048, 5-Cyclopropyl-2-{2-[1-(4-fluoro-phenyl)-cyclopropyl]-1H-pyrrolo[2,3-b]pyridin-4-yl}-4-piperazin-1-yl-pyrido[3,4-d]pyrimidine]	< 100 nM
COc1ccc(-c2nccc3c(NC[C@@H](N)Cc4ccccc4)nc(-c4ccncc4)nc23)cc1 [Example 95, N-[(2S)-2-amino-3-phenylpropyl]-8-(4-methoxy-phenyl)-2-(pyridin-4-yl)-pyrido[3,4-d]-pyrimidin-4-amine]	100 to 1000 nM
COC[C@H]1CN(c2nc(-c3ccnc4[nH]ccc34)nc3cncc(OC)c23)CCN1 [Example 1205, 5-Methoxy-4-((R)-3-methoxymethyl-piperazin-1-yl)-2-(1H-pyrrolo[2,3-b]pyridin-4-yl)-pyrido[3,4-d]pyrimidine]	100 to 1000 nM
COc1cc(Nc2cc(-c3nc(N4CCNCC4)c4c(OC)cncc4n3)ccn2)ccc1N1CCOCC1 [Example 382, (3-Methoxy-4-morpholin-4-yl-phenyl)-[4-(5-methoxy-4-piperazin-1-yl-pyrido[3,4-d]pyrimidin-2-yl)-pyridin-2-yl]-amine]	< 100 nM
